Results taken from patent US20250051356A1, “RIFABUTIN ANALOGS FOR THE TREATMENT OF DISEASE” (priority 2021, published 2025).
In brackets after ≈: the same amount, converted by molar mass. Read-outs that look alike come from different tables or passages of the source.

Key:
Assay type in all cases: cell-based
[1] = tested on: S. aureus (UAMS-1625 strain); assay: MIC by broth microdilution against S. aureus; conditions: Staphylococcus aureus, read-out: MIC S. aureus
[2] = tested on: A. baumannii (HUMC1 strain); assay: MIC by broth microdilution against A. baumannii in RPMI + 10% FCS; conditions: Acinetobacter baumannii, read-out: MIC A. baumannii
M. avium (ATCC 25291) = assay: MIC against M. avium in CAMHB + ADC; conditions: Mycobacterium avium
M. xenopi (ATCC 19250) = assay: MIC against M. xenopi in CAMHB + ADC; conditions: Mycobacterium xenopi
[3] = tested on: M. abscessus subsp. abscessus ATCC 19977; assay: MIC against M. abscessus in Middlebrook 7H9 + ADC; conditions: Mycobacteroides abscessus
M. kansasii (ATCC 12478) = assay: MIC against M. kansasii in CAMHB + ADC; conditions: Mycobacterium kansasii
[4] = ATCC25291, ATCC 25291, CAMHB + ADC (5%), read-out: MIC M. avium
[5] = ATCC19250, ATCC 19250, CAMHB + ADC (5%), read-out: MIC M. xenopi
[6] = ATCC19977, ATCC 19977, 7H9 + ADC, read-out: MIC M. abscessus
[7] = ATCC12478, ATCC 12478, CAMHB + ADC (5%), read-out: MIC M. kansasii
[8] = ATCC25291, read-out: MIC M. avium
[9] = ATCC19250, read-out: MIC M. xenopi
[10] = ATCC19977, read-out: MIC M. abscessus
[11] = ATCC12478, read-out: MIC M. kansasii

Row | SMILES | MIC [1] | MIC ([2]; HUMC1 strain, RPMI + 10% FCS) | MIC (M. avium (ATCC 25291); [4]) | MIC (M. xenopi (ATCC 19250); [5]) | MIC [3, 6] | MIC (M. kansasii (ATCC 12478); [7]) | MIC [2] | MIC (M. avium (ATCC 25291); [8]) | MIC (M. xenopi (ATCC 19250); [9]) | MIC [3, 10] | MIC (M. kansasii (ATCC 12478); [11])
1 | CO[C@H]1/C=C/O[C@@]2(C)Oc3c(C)c(O)c4c(c3C2=O)C2=NC3(CCN(CC(C)C)CC3)NC2=C(NC(=O)/C(C)=C\C=C\[C@H](C)[C@H](O)[C@@H](C)[C@@H](O)[C@@H](C)[C@H](OC(=O)CC(=O)N2CCC(N(C)c3ccccc3)CC2)[C@@H]1C)C4=O [Compound 14] | 0.5 µg/mL (≈ 0.47 µM) | 0.06 µg/mL | 0.06 µg/mL | 0.03 µg/mL | 0.125 µg/mL | 0.002 µg/mL | – | – | – | – | –
2 | CO[C@H]1/C=C/O[C@@]2(C)Oc3c(C)c(O)c4c(c3C2=O)C2=NC3(CCN(CC(C)C)CC3)NC2=C(NC(=O)/C(C)=C\C=C\[C@H](C)[C@H](O)[C@@H](C)[C@@H](O)[C@@H](C)[C@H](OC(=O)C(C)C(=O)N2CCC(N(C)c3ccccc3)CC2)[C@@H]1C)C4=O (stereo partly drawn) [Compound 40] | 0.5 µg/mL (≈ 0.464 µM) | 0.03 µg/mL | 0.06 µg/mL | 0.03 µg/mL | 0.125 µg/mL | 0.001 µg/mL | – | – | – | – | –
3 | CO[C@H]1/C=C/O[C@@]2(C)Oc3c(C)c(O)c4c(c3C2=O)C2=NC3(CCN(CC(C)C)CC3)NC2=C(NC(=O)/C(C)=C\C=C\[C@H](C)[C@H](O)[C@@H](C)[C@@H](O)[C@@H](C)[C@H](OC(=O)CC(=O)N2CCC(Nc3ccccc3)CC2)[C@@H]1C)C4=O [Compound 44] | 0.25 µg/mL (≈ 0.238 µM) | – | – | – | – | – | 0.008 µg/mL | 0.06 µg/mL | 0.03 µg/mL | 0.25 µg/mL | 0.004 µg/mL
4 | CO[C@H]1/C=C/O[C@@]2(C)Oc3c(C)c(O)c4c(c3C2=O)C2=NC3(CCN(CC(C)C)CC3)NC2=C(NC(=O)/C(C)=C\C=C\[C@H](C)[C@H](O)[C@@H](C)[C@@H](O)[C@@H](C)[C@H](OC(=O)CC(=O)N2CCC(n3nnc5cc(C(F)(F)F)ccc53)CC2)[C@@H]1C)C4=O [Compound 49] | 1 µg/mL (≈ 0.875 µM) | 0.25 µg/mL | 0.06 µg/mL | 0.03 µg/mL | 0.25 µg/mL | 0.008 µg/mL | – | – | – | – | –
5 | CO[C@H]1/C=C/O[C@@]2(C)Oc3c(C)c(O)c4c(c3C2=O)C2=NC3(CCN(CC(C)C)CC3)NC2=C(NC(=O)/C(C)=C\C=C\[C@H](C)[C@H](O)[C@@H](C)[C@@H](O)[C@@H](C)[C@H](OC(=O)CC(=O)N2CCC(Cc3ccccc3)CC2)[C@@H]1C)C4=O [Compound 50] | 2 µg/mL (≈ 1.91 µM) | – | – | – | – | – | 0.06 µg/mL | 0.06 µg/mL | 0.03 µg/mL | 0.125 µg/mL | 0.004 µg/mL
6 | CO[C@H]1/C=C/O[C@@]2(C)Oc3c(C)c(O)c4c(c3C2=O)C2=NC3(CCN(CC(C)C)CC3)NC2=C(NC(=O)/C(C)=C\C=C\[C@H](C)[C@H](O)[C@@H](C)[C@@H](O)[C@@H](C)[C@H](OC(=O)CC(=O)N2CCC3(CC2)Cc2ccccc2C3)[C@@H]1C)C4=O [Compound 52] | 0.5 µg/mL (≈ 0.472 µM) | 0.016 µg/mL | 0.03 µg/mL | 0.03 µg/mL | 0.125 µg/mL | 0.002 µg/mL | – | – | – | – | –
7 | CO[C@H]1/C=C/O[C@@]2(C)Oc3c(C)c(O)c4c(c3C2=O)C2=NC3(CCN(CC(C)C)CC3)NC2=C(NC(=O)/C(C)=C\C=C\[C@H](C)[C@H](O)[C@@H](C)[C@@H](O)[C@@H](C)[C@H](OC(=O)CC(=O)N2CCC(O)(Cc3ccccc3)CC2)[C@@H]1C)C4=O [Compound 54] | 0.125 µg/mL (≈ 0.117 µM) | 0.008 µg/mL | 0.06 µg/mL | – | 0.25 µg/mL | 0.008 µg/mL | – | – | 0.125 µg/mL | – | –
8 | CO[C@H]1/C=C/O[C@@]2(C)Oc3c(C)c(O)c4c(c3C2=O)C2=NC3(CCN(CC(C)C)CC3)NC2=C(NC(=O)/C(C)=C\C=C\[C@H](C)[C@H](O)[C@@H](C)[C@@H](O)[C@@H](C)[C@H](OC(=O)CC(=O)N2CCC(C(=O)c3ccccc3)CC2)[C@@H]1C)C4=O [Compound 55] | 0.5 µg/mL (≈ 0.471 µM) | 0.016 µg/mL | 1 µg/mL | 0.06 µg/mL | 0.25 µg/mL | 0.016 µg/mL | – | – | – | – | –
